The text below walks through data of publication PMC6009961, “Novel 1-(2-pyrimidin-2-yl)piperazine derivatives as selective monoamine oxidase (MAO)-A inhibitors” (Journal of Enzyme Inhibition and Medicinal Chemistry, 2017).

Format in all cases: biochemical
Experiment [1] addresses T1, human recombinant MAO-B (Homo sapiens, UniProt P27338).
T1 construct: purchased Sigma-Aldrich Chemicals (St. Louis, MO)
T1 sequence (P27338 1-520): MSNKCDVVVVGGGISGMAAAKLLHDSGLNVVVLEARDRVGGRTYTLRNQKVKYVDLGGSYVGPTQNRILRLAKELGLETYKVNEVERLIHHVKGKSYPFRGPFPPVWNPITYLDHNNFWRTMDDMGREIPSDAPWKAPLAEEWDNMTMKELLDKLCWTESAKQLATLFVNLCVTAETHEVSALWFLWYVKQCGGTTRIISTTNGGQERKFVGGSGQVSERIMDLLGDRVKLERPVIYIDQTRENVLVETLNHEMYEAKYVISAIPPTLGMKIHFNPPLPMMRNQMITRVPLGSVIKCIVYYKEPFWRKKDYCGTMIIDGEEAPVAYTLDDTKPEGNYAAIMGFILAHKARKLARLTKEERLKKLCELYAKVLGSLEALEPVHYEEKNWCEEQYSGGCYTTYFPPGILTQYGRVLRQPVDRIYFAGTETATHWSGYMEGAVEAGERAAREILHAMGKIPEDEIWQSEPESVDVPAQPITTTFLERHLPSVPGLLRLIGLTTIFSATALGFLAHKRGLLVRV
The experiment is described as follows: MAO activity assay, fluorimetric, kynuramine substrate (MAO-B).

Experiment [2] deals with T2, MAO-A enzyme (Homo sapiens, UniProt P21397).
T2 construct: purchased Sigma-Aldrich Chemicals (St. Louis, MO)
T2 sequence (P21397 1-527): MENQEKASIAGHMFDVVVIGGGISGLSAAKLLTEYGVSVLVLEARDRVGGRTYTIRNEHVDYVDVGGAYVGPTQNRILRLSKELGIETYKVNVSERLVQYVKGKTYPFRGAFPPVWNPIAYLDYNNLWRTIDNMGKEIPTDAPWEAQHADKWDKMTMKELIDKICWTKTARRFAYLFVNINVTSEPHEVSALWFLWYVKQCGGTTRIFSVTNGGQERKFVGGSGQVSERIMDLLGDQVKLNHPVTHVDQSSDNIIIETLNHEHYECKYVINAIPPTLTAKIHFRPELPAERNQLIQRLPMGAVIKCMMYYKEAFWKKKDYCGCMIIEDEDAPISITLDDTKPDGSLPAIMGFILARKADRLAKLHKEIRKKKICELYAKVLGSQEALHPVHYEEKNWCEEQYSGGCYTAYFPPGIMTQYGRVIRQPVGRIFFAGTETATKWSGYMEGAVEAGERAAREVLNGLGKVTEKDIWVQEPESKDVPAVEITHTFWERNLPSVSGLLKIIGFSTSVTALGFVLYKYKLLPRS
Nature of the experiment: MAO activity assay, fluorimetric, kynuramine substrate (MAO-A). The note with it: for MAO-A versus MAO-B selectivity: from inhibition rates at 10^−4 M.

For experiment [3], the target named is T2, MAO-A enzyme. Nature of the experiment: MAO-A enzyme kinetics (Lineweaver-Burk plots). How it is done:
The nature of MAO-A inhibition, caused by this compound, was investigated by the graphical analysis of steady-state inhibition data.
Figure 2. […] Substrate (kynuramine) concentrations used: 40, 20, 10, 5, 2.5 and 1.25 μM. 1/V: 1/velocity of reaction [1/(nmoles/min/mg protein)], 1/S: 1/substrate concentration (1/μM).
The same materials were used in MAO enzyme kinetic assay. The compound 2e was prepared at IC50 concentration and then added to the wells (100 µL/well). Stock solution (25 mM) of kynuramine was diluted to final concentrations of 40, 20, 10, 5, 2.5 and 1.25 µM and then added to the wells (50 µL/well). After MAO-A enzyme was added to the plate (50 µL/well), incubation period at 37 °C for 20 min was started. The plate was read at 310/340 nm excitation/emission wavelength pair[31]. Control measurement without inhibitor was also determined simultaneously. The results were analyzed in Lineweaver–Burk plots using Microsoft Office Excel 2013.

Entries after “also recorded” stand apart in the source; their conditions may differ.

`O=C(CSC(=S)N1CCN(CCO)CC1)N1CCN(c2ncccn2)CC1` [Compound 2c, 2-[4-(Pyrimidin-2-yl)piperazin-1-yl]-2-oxoethyl 4-(2-hydroxyethyl)piperazine-1-carbodithioate]: the IC50 in experiment [1] and in experiment [2] was greater than 1 mM throughout. Besides, the “MAO B inhibition %” value in experiment [1] (10^−3 M) is 12.30 ± 0.48%; in experiment [1] (10^−4 M) it was 7.39 ± 0.25%. Besides, the MAO-A inhibition % in experiment [2] (10^−3 M) was 15.88 ± 0.55%; in experiment [2] (10^−4 M), 9.27 ± 0.27%.

In the case of `CN(C)CCN1CCN(C(=S)SCC(=O)N2CCN(c3ncccn3)CC2)CC1` [Compound 2d, 2-[4-(Pyrimidin-2-yl)piperazin-1-yl]-2-oxoethyl 4-(2-(dimethylamino)ethyl)piperazine-1-carbodithioate], the IC50 in experiment [1] and in experiment [2] was greater than 1 mM each time. The results for the “MAO B inhibition %” value in experiment [1] (10^−3 M) and in experiment [1] (10^−4 M) were 14.37 ± 0.58% and 8.40 ± 0.23%, respectively. The MAO-A inhibition % was determined as 18.74 ± 0.52% in experiment [2] (10^−3 M) and 7.39 ± 0.30% in experiment [2] (10^−4 M).

Regarding `O=C(CSC(=S)N1CCN(c2ncccn2)CC1)N1CCN(c2ncccn2)CC1` [Compound 2n, 2-[4-(Pyrimidin-2-yl)piperazin-1-yl]-2-oxoethyl 4-(pyrimidin-2-yl)piperazine-1-carbodithioate], the IC50 in experiment [1] and in experiment [2] was greater than 1 mM in each case. The “MAO B inhibition %” value in experiment [1] (10^−3 M) came to 29.51 ± 0.74%; in experiment [1] (10^−4 M), 22.95 ± 0.69%. The MAO-A inhibition % came to 31.25 ± 0.94% in experiment [2] (10^−3 M) and 25.00 ± 0.62% in experiment [2] (10^−4 M).

With `O=C(CSC(=S)N1CCN(c2ccc([N+](=O)[O-])cc2)CC1)N1CCN(c2ncccn2)CC1` [Compound 2j, 2-[4-(Pyrimidin-2-yl)piperazin-1-yl]-2-oxoethyl 4-(4-nitrophenyl)piperazine-1-carbodithioate], the IC50 is greater than 0.1 mM in experiment [1] and 0.0231 mM in experiment [2]. Moreover, in experiment [1] (10^−4 M), the “MAO B inhibition %” value came to 40.98 ± 0.94%. In addition, in experiment [3] (Lineweaver–Burk plots, kynuramine 40-1.25 μM), the “nature of MAO-A inhibition” value was “mix-typed inhibitor”. In experiment [3] (nonlinear regression, MAO-A, kynuramine), the Vmax turned out to be 5.34. Besides, the MAO-A inhibition % in experiment [2] (10^−5 M) is on record as 42.45 ± 1.18%; in experiment [2] (10^−6 M) it was 29.70 ± 0.72%; in experiment [2] (10^−7 M), 20.19 ± 0.64%; in experiment [2] (10^−8 M), 16.05 ± 0.40%; in experiment [2] (10^−9 M), 11.53 ± 0.29%. For the same compound, the “MAO-A versus MAO-B selectivity” value in experiment [2] is reported as “selective MAO-A inhibitory activity; also recorded: selective MAO-A enzyme inhibitors”.

`O=C(CSC(=S)N1CCN(C2CCCCC2)CC1)N1CCN(c2ncccn2)CC1` [Compound 2e, 2-[4-(Pyrimidin-2-yl)piperazin-1-yl]-2-oxoethyl 4-cyclohexylpiperazine-1-carbodithioate]: the IC50 in experiment [1] and in experiment [2] was greater than 1 mM in each case. In addition, the “MAO B inhibition %” value in experiment [1] (10^−3 M) is recorded as 12.60 ± 0.45%; in experiment [1] (10^−4 M), 5.22 ± 0.18%. Also, the values for the MAO-A inhibition % in experiment [2] (10^−3 M) and in experiment [2] (10^−4 M) were 16.75 ± 0.42% and 5.90 ± 0.15%, respectively.

With `Cc1ccc(CN2CCN(C(=S)SCC(=O)N3CCN(c4ncccn4)CC3)CC2)cc1` [Compound 2l, 2-[4-(Pyrimidin-2-yl)piperazin-1-yl]-2-oxoethyl 4-(4-methylbenzyl)piperazine-1-carbodithioate], the “MAO B inhibition %” value in experiment [1] (10^−4 M) was found to be 15.00 ± 0.68%. In experiment [2], this compound showed an IC50 greater than 1 mM. Besides, the MAO-A inhibition % in experiment [2] (10^−3 M) was determined as 32.31 ± 0.86%; in experiment [2] (10^−4 M), 15.38 ± 0.61%.

For `O=C(CSC(=S)N1CCN(c2ccccc2)CC1)N1CCN(c2ncccn2)CC1` [Compound 2f, 2-[4-(Pyrimidin-2-yl)piperazin-1-yl]-2-oxoethyl 4-phenylpiperazine-1-carbodithioate], the values for the IC50 in experiment [1] and in experiment [2] were greater than 0.1 mM and greater than 1 mM, respectively. In experiment [1] (10^−4 M), the “MAO B inhibition %” value is 31.15 ± 0.67%. Further, the MAO-A inhibition % was found to be 33.33 ± 1.30% in experiment [2] (10^−3 M) and 31.25 ± 0.88% in experiment [2] (10^−4 M).

As to `O=C(CSC(=S)N1CCN(c2ccc(Cl)cc2)CC1)N1CCN(c2ncccn2)CC1` [Compound 2h, 2-[4-(Pyrimidin-2-yl)piperazin-1-yl]-2-oxoethyl 4-(4-chlorophenyl)piperazine-1-carbodithioate], the IC50 in experiment [1] and in experiment [2] was greater than 1 mM throughout. The figures for the “MAO B inhibition %” value in experiment [1] (10^−3 M) and in experiment [1] (10^−4 M) were 40.98 ± 1.20% and 31.15 ± 1.07%, respectively. Moreover, the MAO-A inhibition % in experiment [2] (10^−3 M) turned out to be 13.45 ± 0.38%; in experiment [2] (10^−4 M) it was 6.70 ± 0.22%.

Turning to `Cc1ccc(N2CCN(C(=S)SCC(=O)N3CCN(c4ncccn4)CC3)CC2)cc1` [Compound 2g, 2-[4-(Pyrimidin-2-yl)piperazin-1-yl]-2-oxoethyl 4-(p-tolyl)piperazine-1-carbodithioate], the IC50 in experiment [1] and in experiment [2] was greater than 1 mM throughout. Moreover, the results for the “MAO B inhibition %” value in experiment [1] (10^−3 M) and in experiment [1] (10^−4 M) were 18.20 ± 0.82% and 10.76 ± 0.33%, respectively. The MAO-A inhibition % in experiment [2] (10^−3 M) is listed as 37.50 ± 1.42%; in experiment [2] (10^−4 M), 33.33 ± 0.99%.

In the case of `CCN1CCN(C(=S)SCC(=O)N2CCN(c3ncccn3)CC2)CC1` [Compound 2b, 2-[4-(Pyrimidin-2-yl)piperazin-1-yl]-2-oxoethyl 4-ethylpiperazine-1-carbodithioate], the IC50 in experiment [1] and in experiment [2] was greater than 1 mM in each case. Besides, the “MAO B inhibition %” value in experiment [1] (10^−3 M) was determined as 10.08 ± 0.42%; in experiment [1] (10^−4 M), 5.65 ± 0.14%. Further, the figures for the MAO-A inhibition % in experiment [2] (10^−3 M) and in experiment [2] (10^−4 M) were 11.52 ± 0.38% and 6.86 ± 0.21%, respectively.

Consider `CN1CCN(C(=S)SCC(=O)N2CCN(c3ncccn3)CC2)CC1` [Compound 2a, 2-[4-(Pyrimidin-2-yl)piperazin-1-yl]-2-oxoethyl 4-methylpiperazine-1-carbodithioate], for which the IC50 in experiment [1] and in experiment [2] was greater than 1 mM in each case. The “MAO B inhibition %” value in experiment [1] (10^−3 M) was found to be 10.23 ± 0.31%; in experiment [1] (10^−4 M), 5.37 ± 0.22%. The MAO-A inhibition % worked out at 12.84 ± 0.59% in experiment [2] (10^−3 M) and 7.33 ± 0.19% in experiment [2] (10^−4 M).

Take `O=C(CSC(=S)N1CCN(Cc2ccccc2)CC1)N1CCN(c2ncccn2)CC1` [Compound 2k]: the IC50 in experiment [1] and in experiment [2] was greater than 1 mM throughout. Further, the “MAO B inhibition %” value is 13.08 ± 0.56% in experiment [1] (10^−3 M) and 5.87 ± 0.22% in experiment [1] (10^−4 M). In addition, the MAO-A inhibition % in experiment [2] (10^−3 M) amounted to 19.81 ± 0.59%; in experiment [2] (10^−4 M) it was 6.15 ± 0.18%.

On to `O=C(CSC(=S)N1CCN(c2ccc(F)cc2)CC1)N1CCN(c2ncccn2)CC1` [Compound 2i, 2-[4-(Pyrimidin-2-yl)piperazin-1-yl]-2-oxoethyl 4-(4-fluorophenyl)piperazine-1-carbodithioate], for which the IC50 in experiment [1] was greater than 1 mM; in experiment [2], greater than 0.1 mM. For the same compound, the “MAO B inhibition %” value in experiment [1] (10^−3 M) worked out at 44.26 ± 1.13%; in experiment [1] (10^−4 M) it was 27.86 ± 0.66%. For the same compound, the MAO-A inhibition % in experiment [2] (10^−4 M) worked out at 39.58 ± 0.95%.

With `O=C(CSC(=S)N1CCN(C(c2ccccc2)c2ccccc2)CC1)N1CCN(c2ncccn2)CC1` [Compound 2m, 2-[4-(Pyrimidin-2-yl)piperazin-1-yl]-2-oxoethyl 4-benzhydrylpiperazine-1-carbodithioate], the IC50 in experiment [1] was greater than 0.1 mM; in experiment [2] it was 0.0241 mM. Also, the “MAO B inhibition %” value in experiment [1] (10^−4 M) is recorded as 40.00 ± 0.99%. The MAO-A inhibition % was found to be 33.65 ± 0.93% in experiment [2] (10^−5 M); 28.16 ± 0.87% in experiment [2] (10^−6 M); 21.88 ± 0.74% in experiment [2] (10^−7 M); 15.77 ± 0.68% in experiment [2] (10^−8 M); 10.62 ± 0.41% in experiment [2] (10^−9 M). Further, in experiment [2], the “MAO-A versus MAO-B selectivity” value is “selective MAO-A inhibitory activity; also recorded: selective MAO-A enzyme inhibitors”.
